Holding throughout (type): cell-based
Assay [1] deals with S. aureus ATCC 6538. Nature of the assay: MIC by broth microdilution, S. aureus. Conditions: Staphylococcus aureus. The method in brief:
(§1)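 Two-fold serial dilutions were tested in broth at ~5×10^5 cfu/mL: S. aureus in TSB or CAMHB, E. coli in LB or CAMHB, with 50 μM zinc sulphate added as required. After 24 h at 37° C, 200 rpm, MIC was the lowest concentration showing no growth by OD600.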
In general terms: In broth dilution the organism is exposed to a series of concentrations in liquid medium.

In assay [2] the test system is S. uberis ATCC 19436. The experiment in a line: MIC by broth microdilution, S. uberis. The settings on record: Streptococcus uberis. Summed up: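 This broth microdilution assay used S. uberis ATCC 19436 in Todd Hewitt Broth, with zinc sulphate heptahydrate added where required to a final 50 μM. Inhibitor concentration ranges came from two-fold serial dilutions in 96-well flat bottom plates at 200 μl. Approximately 5×10^5 cfu/mL cells were incubated for 24 h at 37° C. and 200 rpm. Wells were then read at OD600 on a Varioskan Flash reader.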

The test system of assay [3] is E. coli ATCC 10596. Nature of the assay: MIC by broth microdilution, E. coli. Conditions: Escherichia coli. Summed up:
as §1

The mark [4] stands for this setting: ATCC6538, read-out: S. aureus ATCC 6538 MIC, No Zinc.
The mark [5] stands for this setting: ATCC6538, read-out: S. aureus ATCC 6538 MIC, Zinc (50 μM).
Where [6] appears, read: ATCC19436, read-out: S. uberis ATCC 19436 MIC, No Zinc.
[7] abbreviates: ATCC19436, read-out: S. uberis ATCC 19436 MIC, Zinc (50 μM).
Where [8] appears, read: ATCC 10536 / ATCC 10596, read-out: E. coli ATCC 10536 MIC, No Zinc.
[9] abbreviates: ATCC 10536 / ATCC 10596, read-out: E. coli ATCC 10536 MIC, Zinc (50 μM).
Where [10] appears, read: ATCC6538, No Zinc, read-out: S. aureus ATCC 6538 MIC.
[11] abbreviates: ATCC6538, Zinc (50 μM), read-out: S. aureus ATCC 6538 MIC.
Setting [12] is: ATCC19436, No Zinc, read-out: S. uberis ATCC 19436 MIC.
The mark [13] stands for this setting: ATCC19436, Zinc (50 μM), read-out: S. uberis ATCC 19436 MIC.
The mark [14] stands for this setting: ATCC 10536 / ATCC 10596, No Zinc, read-out: E. coli ATCC 10536 MIC.
[15] abbreviates: ATCC 10536 / ATCC 10596, Zinc (50 μM), read-out: E. coli ATCC 10536 MIC.

Converted amounts (≈) assume the structure as drawn. Where a name gives a salt, the structure may show the parent alone. Read-outs that look alike come from different tables or passages of the source. Bounds are passed on as bounds.

As usually defined, the MIC is the lowest concentration that inhibits growth of the organism. As for `CNC(=O)CNCc1ccc2cccc(NS(=O)(=O)c3ccc(C(F)(F)F)cc3)c2n1` [ZDR270, N-Methyl-2-(((8-((4-(trifluoromethyl)phenyl)sulfonamido)quinolin-2-yl)methyl)amino)acetamide trifluoroacetate], the MIC in assay [1] (setting [4]) came to 32 µg/mL; in assay [1] (setting [5]), 32 µg/mL; in assay [2] (setting [6]), 16 µg/mL; in assay [2] (setting [7]), 4 µg/mL; in assay [3] (setting [8]), 128 µg/mL; in assay [3] (setting [9]) it was 256 µg/mL.

Consider `N/C(=N\[N+](=O)[O-])NCCNCc1ccc2cccc(NS(=O)(=O)c3ccc(C(F)(F)F)cc3)c2n1` [ZDR145, (E)-N-(2-(((2-(2-Nitroguanidino)ethyl)amino)methyl)quinolin-8-yl)-4-(trifluoromethyl)benzenesulfonamide], for which the MIC was 64 µg/mL (≈ 125 µM) in assay [1] (setting [10]); 128 µg/mL (≈ 250 µM) in assay [1] (setting [11]); greater than 256 µg/mL in assay [2] (setting [12]); greater than 256 µg/mL in assay [2] (setting [13]); 128 µg/mL (≈ 250 µM) in assay [3] (setting [14]); 256 µg/mL (≈ 501 µM) in assay [3] (setting [15]).

Turning to `CN(C)Cc1ccc2cccc(NS(=O)(=O)c3ccc(Cl)s3)c2n1` [ZDR326, 5-Chloro-N-(2-((dimethylamino)methyl)quinolin-8-yl)thiophene-2-sulfonamide], the MIC was 32 µg/mL (≈ 83.8 µM) in assay [1] (setting [10]); 128 µg/mL (≈ 335 µM) in assay [1] (setting [11]); 128 µg/mL (≈ 335 µM) in assay [2] (setting [12]); 0.125 µg/mL (≈ 0.327 µM) in assay [2] (setting [13]); 256 µg/mL (≈ 670 µM) in assay [3] (setting [14]); greater than 256 µg/mL in assay [3] (setting [15]).

For the compound `CN(C)Cc1ccc2cccc(NS(=O)(=O)c3cccc(Cl)c3)c2n1` [ZDR084, 3-Chloro-N-(2-((dimethylamino)methyl)quinolin-8-yl)benzenesulfonamide], the MIC was 256 µg/mL (≈ 681 µM) in assay [1] (setting [10]); greater than 256 µg/mL in assay [1] (setting [11]); 128 µg/mL (≈ 341 µM) in assay [2] (setting [12]); 0.0625 µg/mL (≈ 0.166 µM) in assay [2] (setting [13]); 256 µg/mL (≈ 681 µM) in assay [3] (setting [14]); greater than 256 µg/mL in assay [3] (setting [15]).

Regarding `C=CS(=O)(=O)Nc1cccc2ccc(CN(C)C)nc12` [ZDR500, N-(2-((Dimethylamino)methyl)quinolin-8-yl)ethenesulfonamide], the MIC was 256 µg/mL (≈ 879 µM) in assay [1] (setting [10]); greater than 256 µg/mL in assay [1] (setting [11]); greater than 256 µg/mL in assay [2] (setting [12]); 0.5 µg/mL (≈ 1.72 µM) in assay [2] (setting [13]); greater than 256 µg/mL in assay [3] (setting [14]); greater than 256 µg/mL in assay [3] (setting [15]).

In the case of `O=S(=O)(Nc1cccc2ccc(CO)nc12)c1ccc(C(F)(F)F)cc1` [ZDR176, N-(2-(Hydroxymethyl)quinolin-8-yl)-4-(trifluoromethyl)benzenesulfonamide], the MIC is 4 µg/mL (≈ 10.5 µM) in assay [1] (setting [10]); 4 µg/mL (≈ 10.5 µM) in assay [1] (setting [11]); greater than 256 µg/mL in assay [2] (setting [12]); 0.5 µg/mL (≈ 1.31 µM) in assay [2] (setting [13]); greater than 256 µg/mL in assay [3] (setting [14]); greater than 256 µg/mL in assay [3] (setting [15]).

As for `O=S(=O)(Nc1cccc2ccc(CNCC3CCCCC3)nc12)c1ccc(C(F)(F)F)cc1` [ZDR406, N-(2-(((Cyclohexylmethyl)amino)methyl)quinolin-8-yl)-4-(trifluoromethyl)benzenesulfonamide], the MIC in assay [1] (setting [10]) was 32 µg/mL (≈ 67 µM); in assay [1] (setting [11]), 128 µg/mL (≈ 268 µM); in assay [2] (setting [12]) it was 16 µg/mL (≈ 33.5 µM); in assay [2] (setting [13]), 0.125 µg/mL (≈ 0.262 µM); in assay [3] (setting [14]), 64 µg/mL (≈ 134 µM); in assay [3] (setting [15]), 256 µg/mL (≈ 536 µM).

For the compound `O=S(=O)(NCCNCc1ccc2cccc(NS(=O)(=O)c3ccc(C(F)(F)F)cc3)c2n1)c1ccccc1` [ZDR181, N-(2-(((2-(Phenylsulfonamido)ethyl)amino)methyl)quinolin-8-yl)-4-(trifluoromethyl)benzenesulfonamide], the MIC in assay [1] (setting [10]) is 64 µg/mL (≈ 113 µM); in assay [1] (setting [11]), greater than 256 µg/mL; in assay [2] (setting [12]) it was greater than 256 µg/mL; in assay [2] (setting [13]) it was 0.5 µg/mL (≈ 0.886 µM); in assay [3] (setting [14]), 64 µg/mL (≈ 113 µM); in assay [3] (setting [15]) it was greater than 256 µg/mL.

In the case of `O=S(=O)(Nc1cccc2ccc(/C=N/OCc3ccccc3)nc12)c1ccc(C(F)(F)F)cc1` [ZDR137, (E)-N-(2-(((Benzyloxy)imino)methyl)quinolin-8-yl)-4-(trifluoromethyl)benzenesulfonamide], the MIC in assay [1] (setting [10]) is greater than 256 µg/mL; in assay [1] (setting [11]) it was greater than 256 µg/mL; in assay [2] (setting [12]), greater than 256 µg/mL; in assay [2] (setting [13]) it was 0.125 µg/mL (≈ 0.257 µM); in assay [3] (setting [14]) it was greater than 256 µg/mL; in assay [3] (setting [15]) it was greater than 256 µg/mL.

Take `CN(C)Cc1ccc2cccc(NS(=O)(=O)c3ccc(OC(F)F)cc3)c2n1` [ZDR306, 4-(Difluoromethoxy)-N-(2-((dimethylamino)methyl)quinolin-8-yl)benzenesulfonamide]: the MIC is 128 µg/mL (≈ 314 µM) in assay [1] (setting [10]); 128 µg/mL (≈ 314 µM) in assay [1] (setting [11]); 128 µg/mL (≈ 314 µM) in assay [2] (setting [12]); 0.125 µg/mL (≈ 0.307 µM) in assay [2] (setting [13]); greater than 256 µg/mL in assay [3] (setting [14]); greater than 256 µg/mL in assay [3] (setting [15]).

`CN(C)Cc1ccc2cccc(NS(=O)(=O)C3CCNCC3)c2n1` [ZDR263, N-(2-((Dimethylamino)methyl)quinolin-8-yl)piperidine-4-sulfonamide di-trifluoroacetate]: the MIC in assay [1] (setting [4]) was greater than 256 µg/mL; in assay [1] (setting [5]), greater than 256 µg/mL; in assay [2] (setting [6]), greater than 256 µg/mL; in assay [2] (setting [7]) it was 256 µg/mL (≈ 735 µM); in assay [3] (setting [8]), greater than 256 µg/mL; in assay [3] (setting [9]) it was greater than 256 µg/mL.

For the compound `CN(C)Cc1ccc2cccc(NS(=O)(=O)c3ccc(F)c(F)c3)c2n1` [ZDR338, N-(2-((Dimethylamino)methyl)quinolin-8-yl)-3,4-difluorobenzenesulfonamide], the MIC is greater than 256 µg/mL in assay [1] (setting [10]); greater than 256 µg/mL in assay [1] (setting [11]); 128 µg/mL (≈ 339 µM) in assay [2] (setting [12]); 0.0625 µg/mL (≈ 0.166 µM) in assay [2] (setting [13]); greater than 256 µg/mL in assay [3] (setting [14]); greater than 256 µg/mL in assay [3] (setting [15]).

With `CN(C)Cc1ccc2cccc(NS(=O)(=O)c3ccc(OC(F)(F)F)cc3)c2n1` [ZDR066, N-(2-((Dimethylamino)methyl)quinolin-8-yl)-4-(trifluoromethoxy)benzenesulfonamide], the MIC was 256 µg/mL (≈ 602 µM) in assay [1] (setting [10]); greater than 256 µg/mL in assay [1] (setting [11]); 128 µg/mL (≈ 301 µM) in assay [2] (setting [12]); 0.0625 µg/mL (≈ 0.147 µM) in assay [2] (setting [13]); greater than 256 µg/mL in assay [3] (setting [14]); greater than 256 µg/mL in assay [3] (setting [15]).

For the compound `CS(=O)(=O)NCc1ccc2cccc(NS(=O)(=O)c3ccc(C(F)(F)F)cc3)c2n1` [ZDR209, N-(2-(Methylsulfonamidomethyl)quinolin-8-yl)-4-(trifluoromethyl)benzenesulfonamide], the MIC was greater than 256 µg/mL in assay [1] (setting [10]); greater than 256 µg/mL in assay [1] (setting [11]); greater than 256 µg/mL in assay [2] (setting [12]); 1 µg/mL (≈ 2.18 µM) in assay [2] (setting [13]); greater than 256 µg/mL in assay [3] (setting [14]); greater than 256 µg/mL in assay [3] (setting [15]).

Turning to `O=S(=O)(Nc1cccc2ccc(CNCc3ccco3)nc12)c1ccc(C(F)(F)F)cc1` [ZDR106, N-(2-(((Furan-2-ylmethyl)amino)methyl)quinolin-8-yl)-4-(trifluoromethyl)benzenesulfonamide], the MIC in assay [1] (setting [10]) is greater than 256 µg/mL; in assay [1] (setting [11]) it was greater than 256 µg/mL; in assay [2] (setting [12]), 64 µg/mL (≈ 139 µM); in assay [2] (setting [13]) it was 0.25 µg/mL (≈ 0.542 µM); in assay [3] (setting [14]) it was greater than 256 µg/mL; in assay [3] (setting [15]), greater than 256 µg/mL.

Consider `O=S(=O)(Nc1cccc2ccc(CNC3CCCC3)nc12)c1ccc(C(F)(F)F)cc1` [ZDR404, N-(2-((Cyclopentylamino)methyl)quinolin-8-yl)-4-(trifluoromethyl)benzenesulfonamide], for which the MIC in assay [1] (setting [10]) is 32 µg/mL (≈ 71.2 µM); in assay [1] (setting [11]) it was 256 µg/mL (≈ 570 µM); in assay [2] (setting [12]), 16 µg/mL (≈ 35.6 µM); in assay [2] (setting [13]), 0.125 µg/mL (≈ 0.278 µM); in assay [3] (setting [14]), 128 µg/mL (≈ 285 µM); in assay [3] (setting [15]) it was greater than 256 µg/mL.

Values taken from patent US11691949B2, “Quinoline sulfonamide compounds and their use as antibacterial agents” (OTAGO INNOVATION LIMITED, priority 2017, dated 2023).
